Source: patent US9499553B2 (CHUGAI SEIYAKU KABUSHIKI KAISHA, priority 2013, dated 2016)

Target: T1, human NaPi-IIb (Homo sapiens, UniProt O95436)
T1 construct: expressed in transfected cells
T1 sequence (O95436 1-690): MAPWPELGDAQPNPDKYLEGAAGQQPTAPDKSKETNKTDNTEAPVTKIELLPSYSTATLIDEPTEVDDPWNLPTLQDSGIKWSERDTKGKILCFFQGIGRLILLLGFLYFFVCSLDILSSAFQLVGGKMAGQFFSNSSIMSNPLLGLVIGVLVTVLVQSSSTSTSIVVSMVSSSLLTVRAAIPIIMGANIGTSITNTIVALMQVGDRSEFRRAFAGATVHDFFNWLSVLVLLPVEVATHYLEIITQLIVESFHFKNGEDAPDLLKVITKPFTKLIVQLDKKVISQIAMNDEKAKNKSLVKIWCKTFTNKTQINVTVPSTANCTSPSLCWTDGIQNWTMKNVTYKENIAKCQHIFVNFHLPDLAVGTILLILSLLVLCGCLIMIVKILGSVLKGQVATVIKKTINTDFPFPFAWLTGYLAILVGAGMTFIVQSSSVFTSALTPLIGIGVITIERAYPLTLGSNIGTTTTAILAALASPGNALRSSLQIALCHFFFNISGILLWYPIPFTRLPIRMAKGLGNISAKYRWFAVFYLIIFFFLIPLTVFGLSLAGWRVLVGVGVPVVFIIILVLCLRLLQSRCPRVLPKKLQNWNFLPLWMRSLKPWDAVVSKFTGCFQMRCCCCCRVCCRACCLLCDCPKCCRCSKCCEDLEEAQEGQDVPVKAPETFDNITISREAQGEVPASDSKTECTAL
Test: Inhibitory effect on 33PO4 uptake into human NaPi-IIb-expressing CHO cells
Format: cell-based
Settings: read-out: IC50
Method: Test Example 2: Inhibitory Effect on PO4 Uptake into Human NaPi-IIb-Expressing Cell CHO cells were transfected with human NaPi-IIb expression plasmids, and a stably human NaPi-IIb-expressing cell line was obtained using G418. The human NaPi-IIb-expressing cells were inoculated to a 96-well plate and incubated overnight in a CO2 incubator. […] After a given time, a 1/20 volume of buffer A containing ^33PO4 was added thereto and reacted at room temperature. After washing with ice-cold buffer A, a liquid scintillator was added to each reaction mixture, and the amount of ^33PO4 uptake was measured using TopCount.

Row | IC50 | Structure (SMILES)
1 | 4.7 µM | CSc1ccc(-c2cc(C(F)(F)F)ccc2NC(=O)C2=C(O)C(C)(C)N(C)N(Cc3cccc(F)c3F)C2=O)cn1 [Example 310]
2 | 7.9 µM | COc1cc(-c2cc(C(F)(F)F)ccc2NC(=O)C2=C(O)[C@@]3(C)CCCN3N(Cc3cccc(F)c3F)C2=O)cnc1C#N [Example 114, (4aR)—N-[2-(6-Cyano-5-methoxypyridin-3-yl)-4-(trifluoromethyl)phenyl]-1-[(2,3-difluorophenyl)methyl]-4-hydroxy-4a-methyl-2-oxo-6,7-dihydro-5H-pyrrolo[1,2-b]pyridazine-3-carboxamide]
3 | 13.2 µM | CN1[C@@H](C(C)(C)C)C(O)=C(C(=O)Nc2cnc(C(F)(F)F)nc2-c2ccc(C(F)(F)F)nc2)C(=O)N1Cc1ccc(OCCN2CCOCC2)c(F)c1F [Example 273]
4 | 9 µM | COC(=O)COc1ccc(CN2C(=O)C(C(=O)Nc3ccc(C(F)(F)F)cc3-c3ccc(C(F)(F)F)nc3)=C(O)[C@@]3(C)CCCN23)c(F)c1F [Example 150]
5 | 7 µM | C[C@]12CCCN1N(Cc1ccc(F)c(F)c1)C(=O)C(C(=O)Nc1ccc(C(F)(F)F)cc1-c1cc(C(F)(F)F)ncn1)=C2O [Example 214]
6 | 19.7 µM | COc1cccc(-c2cc(C(F)(F)F)ccc2NC(=O)C2=C(O)[C@@]3(C)CCCN3N(Cc3ccc(C#CCCO)c(F)c3F)C2=O)c1OC [Example 134]
7 | 21 µM | C[C@H]1COC[C@H](C)N1CCOc1ccc(CN2C(=O)C(C(=O)Nc3ccc(C(F)(F)F)cc3-c3cc(C(F)(F)F)ncn3)=C(O)C3(CCC3)N2C)c(F)c1F [Example 343]
8 | 9.1 µM | CSc1ncc(-c2cc(C(F)(F)F)ccc2NC(=O)C2=C(O)[C@@]3(C)CCCN3N(Cc3ccc(C#CCCCCC(=O)O)c(F)c3F)C2=O)cn1 [Example 118, 7-[4-[[(4aR)-4-Hydroxy-4a-methyl-3-[[2-(2-methylsulfanylpyrimidin-5-yl)-4-(trifluoromethyl)phenyl]carbamoyl]-2-oxo-6,7-dihydro-5H-pyrrolo[1,2-b]pyridazin-1-yl]methyl]-2,3-difluorophenyl]hept-6-ynoate]
9 | 6.9 µM | CSc1ccc(-c2cc(C(F)(F)F)ccc2NC(=O)C2=C(O)[C@@]3(C)CCCN3N(Cc3ccc(CCCCCCC(=O)O)c(F)c3F)C2=O)cn1 [Example 115, 7-[4-[[(4aR)-4-Hydroxy-4a-methyl-3-[[2-(6-methylsulfanylpyridin-3-v1)-4-(trifluoromethyl)phenyl]carbamoyl]-2-oxo-6,7-dihydro-5H-pyrrolo[1,2-b]pyridazin-1-yl]methyl]-2,3-difluorophenyl]heptanoate]
10 | 9 µM | C[C@]12CCCN1N(Cc1cccc([N+](=O)[O-])c1)C(=O)C(C(=O)Nc1ccc(Br)c(F)c1)=C2O [Example 27]
11 | 2.2 µM | C[C@]12CCCN1N(Cc1ccc(F)c(F)c1)C(=O)C(C(=O)Nc1ccc(C(F)(F)F)cc1-c1ccc(C(F)(F)F)nc1)=C2O [Example 170]
12 | 4.8 µM | C[C@]12CCCN1N(Cc1cccc(Cl)c1)C(=O)C(C(=O)Nc1ccc(C(F)(F)F)cc1-c1cc(C(F)(F)F)ncn1)=C2O [Example 181]
13 | 4.6 µM | CN1N(Cc2cccc(F)c2F)C(=O)C(C(=O)Nc2cc(C(F)(F)F)ccc2-c2ccc(C(F)(F)F)nc2)=C(O)C1(C)C [Example 307]
14 | 14.7 µM | CCC1(CC)C(O)=C(C(=O)Nc2ccc(C(F)(F)F)cc2-c2cc(C(F)(F)F)ncn2)C(=O)N(Cc2ccc(OCCN3CCOCC3)c(F)c2F)N1C [Example 291]
15 | 7.1 µM | C[C@]12CCCN1N(Cc1c(F)cc(C#CCCOC[C@H](O)CO)cc1F)C(=O)C(C(=O)Nc1ccc(C(F)(F)F)cc1-c1ccc(C(F)(F)F)nc1)=C2O [Example 145]
16 | 16.5 µM | C[C@]12CCCN1N(Cc1ccc(F)cc1F)C(=O)C(C(=O)Nc1cc(F)c(Br)c(F)c1)=C2O [Example 192]
17 | 5.7 µM | C[C@]12CCCN1N(Cc1cc(Cl)ccc1F)C(=O)C(C(=O)Nc1ccc(C(F)(F)F)cc1-c1cc(C(F)(F)F)ncn1)=C2O [Example 211]
18 | 19.7 µM | COc1cccc(-c2cc(C(F)(F)F)ccc2NC(=O)C2=C(O)[C@@]3(C)CCCN3N(Cc3ccc(C#CCOCCO)c(F)c3F)C2=O)c1OC [Example 137]
19 | 2 µM | C[C@]12CCCN1N(Cc1cccc(F)c1F)C(=O)C(C(=O)Nc1cc(F)c(Br)c(F)c1)=C2O [Example 29]
20 | 11.4 µM | COc1cccc(-c2cc(C(F)(F)F)ccc2NC(=O)C2=C(O)[C@@]3(C)CCCN3N(Cc3ccc(OC[C@H]4CCCO4)c(F)c3F)C2=O)c1OC [Example 159]

Row | Structure (SMILES) | IC50
21 | CSc1ccc(-c2cc(C(F)(F)F)ccc2NC(=O)C2=C(O)[C@@]3(C)CCCN3N(Cc3ccc(OCCCCOC[C@H](O)CO)c(F)c3F)C2=O)cn1 [Example 120, (4aR)-1-[[4-[4-[(2R)-2,3-Dihydroxypropoxy]butoxy]-2,3-difluorophenyl]methyl]-4-hydroxy-4a-methyl-N-[2-(6-methylsulfanylpyridin-3-v1)-4-(trifluoromethyl)phenyl]-2-oxo-6,7-dihydro-5H-pyrrolo[1,2-b]pyridazine-3-carboxamide] | 20.5 µM

Same assay, conditions: read-out: IC50 against 33PO4 uptake into human NaPi-IIb-expressing cells

Row | IC50 | Structure (SMILES)
22 | 6.3 µM | COCCN(C)CCOCCOCCOCCOCCOc1ccc(CN2C(=O)C(C(=O)Nc3ccc(C(F)(F)F)cc3-c3cc(C(F)(F)F)ncn3)=C(O)C3(CCCC3)N2C)c(F)c1F [Example 432]
23 | 19.5 µM | COCCN(C)CCOc1c(I)cc(CN2C(=O)C(C(=O)Nc3ccc(C(F)(F)F)cc3-c3cc(C(F)(F)F)ncn3)=C(O)C3(CCCC3)N2C)c(F)c1F [Example 437, 7-[[2,3-Difluoro-5-iodo-4-[2-[2-methoxyethyl(methyl)amino]ethoxy]phenyl]methyl]-10-hydroxy-6-methyl-8-oxo-N-[4-(trifluoromethyl)-2-[6-(trifluoromethyl)pyrimidin-4-yl]phenyl]-6,7-diazaspiro[4.5]dec-9-ene-9-carboxamide]
24 | 7 µM | CN1N(Cc2ccc(OCCCCCOC[C@H](O)CO)c(F)c2F)C(=O)C(C(=O)Nc2ccc(C(F)(F)F)cc2-c2cc(C(F)(F)F)ncn2)=C(O)C12CCC2 [Example 391]
25 | 28.1 µM | CN(CCOCCC(=O)N(C)C[C@H](O)[C@@H](O)[C@H](O)[C@H](O)CO)CCOc1ccc(CN2C(=O)C(C(=O)Nc3ccc(C(F)(F)F)cc3-c3cc(C(F)(F)F)ncn3)=C(O)C3(CCCC3)N2C)c(F)c1F [Example 425]
26 | 15.2 µM | CN1N(Cc2ccc(OCCCOCCO)c(F)c2F)C(=O)C(C(=O)Nc2ccc(C(F)(F)F)cc2-c2cc(C(F)(F)F)ncn2)=C(O)C12CCCC2 [Example 395]
27 | 20.9 µM | CN1N(Cc2ccc(OCCCOC[C@H](O)CO)c(F)c2F)C(=O)C(C(=O)Nc2ccc(C(F)(F)F)cc2-c2ccc(C(F)(F)F)nc2)=C(O)C12CCC2 [Example 383, 6-[[4-[3-[(2R)-2,3-Dihydroxypropoxy]propoxy]-2,3-difluorophenyl]methyl]-9-hydroxy-5-methyl-7-oxo-N-[4-(trifluoromethyl)-2-[6-(trifluoromethyl)pyridin-3-yl]phenyl]5,6-diazaspiro[3.5]non-8-ene-8-carboxamide]
28 | 6.9 µM | CN1N(Cc2ccc(OC(C)(C)CN3CCOCC3)c(F)c2F)C(=O)C(C(=O)Nc2ccc(C(F)(F)F)cc2-c2cc(C(F)(F)F)ncn2)=C(O)C12CCC2 [Example 407, 6-[[2,3-Difluoro-4-(2-methyl-1-morpholin-4-ylpropan-2-yl)oxyphenyl]methyl]-9-hydroxy-5-methyl-7-oxo-N-[4-(trifluoromethyl)-2-[6-(trifluoromethyl)pyrimidin-4-yl]phenyl]-5,6-diazaspiro[3.5]non-8-ene-8-carboxamide]
